# Experimental data published in patent publication US12485132B2, “GPX4 inhibitors and senolytic compounds and uses thereof” (Rubedo Life Sciences, Inc., priority 2023, dated 2025).
# Tests used:
# [1] = test system: senescent normal human dermal fibroblasts; assay: Rescue of compound-induced cell death by ferrostatin-1 in senescent fibroblasts; format: cell-based; conditions: compounds at 1.11 μM, ferrostatin-1 at 0.375 and 6 μM; 24 hours; CellTiter-Glo
# Excerpt: Cell death induced by ferroptosis-inducing agents can be characterized by rescuing the cellular response with radical trapping agents that prevent the accumulation of phospholipid hydroperoxides (Stockwell et al., Cell Chem Biol 2020 27 (4): 365-375). As such, ferrostatin-1 was identified as a potent inhibitor of ferroptosis for which a free radical trapping mechanism had been reported (Skouta et al., J Am Chem Soc 2014 136 (12): 4551-6; Zika et al., ACS Cent Sci. 2017 3 (3): 232-243; and Miotto et al., Redox Biol. 2020; 101328). To determine whether compounds 18 and 32 induce ferroptosis in senescent cells, normal human dermal fibroblasts were induced to undergo senescence by treatment with a sublethal concentration of chemotherapy (bleomycin sulfate), followed by a rest period without chemotherapy similarly to previous reports (Aoshiba et al., 2003 3:436-43). Cells were maintained in DMEM media (high glucose, 4 mM L-glutamine, no sodium pyruvate) supplemented with 10% heat-inactivated fetal bovine serum in a humidified incubator at 37° C. with 5% carbon dioxide and 5% oxygen. Cellular senescence was qualified by reduced EdU (5-ethynyl-2′-deoxyuridine) incorporation and increased SA-β-Gal (senescence-associated beta-galactosidase) staining compared to proliferating untreated cells. Senescent fibroblasts were plated into 96-well plates at a density of 10,000 cells per well. The next day, ferrostatin-1 was diluted in cell medium to reach a final concentration of 0.375 and 6 μM and was added to cells. Approximately 30 minutes after the addition of ferrostatin-1, compounds 18 and 32 at 1.11 μM, or the peptidyl transfer inhibitor puromycin at 10 μM were added to cells. Cells were incubated with the compounds for 24 hours, at which point viability was quantified using the CellTiter-Glo assay (Promega). The viability for treated cells was determined relative to untreated control cells.
# GPX4 = molecular target: T1, GPX4 (Homo sapiens, UniProt P36969); assay: Competitive binding to GPX4 in A549 cells with biotinylated analog, streptavidin pull-down; format: cell-based; design: host or cells: A549; conditions: 2 μM for 2 hours before 2 μM compound 21 for 5 hours
# T1 sequence (P36969 1-197): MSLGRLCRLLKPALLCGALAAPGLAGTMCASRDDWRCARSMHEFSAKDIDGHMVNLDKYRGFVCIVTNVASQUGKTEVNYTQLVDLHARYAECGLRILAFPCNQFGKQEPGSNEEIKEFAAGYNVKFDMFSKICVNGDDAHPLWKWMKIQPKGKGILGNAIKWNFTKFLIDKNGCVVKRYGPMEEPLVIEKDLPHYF
# Description: Binding of compounds 32 and 69 to the target protein GPX4 in cultured cells can be assessed by the use of biotinylated analogs such as compound 21 that retain their cellular activities. Cells or tissue simultaneously or sequentially exposed to compounds 32 and 69 and biotinylated analog 21 can be analyzed for exogenous biotinylated proteins and thereby enables the identification of cellular targets of compounds 32 and 69. The A549 cancer cell line (ATCC) was exposed to 2 μM of compounds 32 and 69 for 2 hours followed by the addition of 2 μM of compound 21 for 5 hours. Cells were collected and lysed by IGEPAL CA-630 and sodium dodecyl sulfate (SDS) in the presence of a protease inhibitor cocktail (4693132001, Roche). The soluble protein fraction was isolated and incubated with Streptavidin Mag Sepharose (28-9857-38, Cytiva) at 4° C. for 16 hours. The streptavidin-unbound fraction was collected allowing for the quantification of the proportion of GPX4 depleted by the biotinylated compound 21 relative to samples not treated with Streptavidin Mag Sepharose. Furthermore, biotinylated proteins were eluted from Streptavidin Mag Sepharose by head-denaturation in the presence of excess biotin (5 mM). […] Chemiluminescent following HRP substrate addition (34580, ThermoFisher) was detected by the ChemiDoc XRS+ System (Bio-Rad). […]
compound,measurement,setting,value
"C#CC(F)(F)[C@]1(O)CC[C@H]2[C@@H]3CCC4=CC(=NNC(=O)NC5CC5)CCC4=C3[C@H](c3ccc(C4CC4)cc3)C[C@@]21C [Compound 32, N-cyclopropyl-2-((8S,11S,13S,14S,17S)-11-(4-cyclopropylphenyl)-17-(1,1-difluoroprop-2-yn-1-yl)-17-hydroxy-13-methyl-1,2,6,7,8,11,12,13,14,15,16,17-dodecahydro-3H-cyclopenta[a]phenanthren-3-ylidene)hydrazine-1-carboxamide]",inhibition by ferrostatin-1 of compound-induced cell death,[1],potently inhibits cell death induced by compounds 18 and 32
same,effect of pre-treatment on compound 21 dependent depletion of GPX4 protein,GPX4,reduces the compound 21 dependent depletion of GPX4 protein
